Source: patent publication US20140121260A1, “NOVEL CONJUGATES OF POLYUNSATURATED FATTY ACIDS WITH AMINES AND THERAPEUTIC USES THEREOF” (MedWell Laboratories Ltd., priority 2006, published 2014)

How the values were obtained:
ovine COX-1 = molecular target: T1, ovine COX-1 (Ovis aries, UniProt P05979); assay: In vitro COX-1 inhibition, enzyme immuno assay (EIA) kit; type: biochemical; conditions: ovine COX-1, EIA, duplicate determinations
T1 construct: purchased Cayman Chemical 560101
T1 sequence (P05979 25-600): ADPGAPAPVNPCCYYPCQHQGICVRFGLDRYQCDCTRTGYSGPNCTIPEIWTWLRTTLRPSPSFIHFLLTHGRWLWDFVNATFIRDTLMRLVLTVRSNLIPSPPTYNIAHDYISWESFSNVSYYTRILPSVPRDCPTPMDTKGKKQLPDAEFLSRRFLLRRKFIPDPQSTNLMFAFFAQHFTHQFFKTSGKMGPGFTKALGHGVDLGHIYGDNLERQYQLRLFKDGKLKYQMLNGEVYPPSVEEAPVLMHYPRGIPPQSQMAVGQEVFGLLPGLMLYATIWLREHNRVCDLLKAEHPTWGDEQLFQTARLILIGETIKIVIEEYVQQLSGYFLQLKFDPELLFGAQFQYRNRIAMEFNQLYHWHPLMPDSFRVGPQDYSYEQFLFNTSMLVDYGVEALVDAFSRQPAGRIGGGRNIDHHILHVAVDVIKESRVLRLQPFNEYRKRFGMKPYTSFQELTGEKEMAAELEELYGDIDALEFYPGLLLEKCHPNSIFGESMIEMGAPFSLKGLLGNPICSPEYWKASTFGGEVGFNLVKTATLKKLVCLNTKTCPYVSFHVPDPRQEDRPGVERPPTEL
Method: (§1) The exemplary conjugates shown in FIGS. 5 A-E, to which reference is now made, were tested for inhibition of COX-1 and COX-2 to in-vitro activity The ability of the test compounds listed in the Table 1 to inhibit ovine COX-1 and COX-2 (IC50 values, […]) was determined using an enzyme immuno assay (EIA) kit catalog number 560101, Cayman Chemical, Ann Arbor, Mich., USA) according to the manufacturers instructions.
(§2) Cyclooxygenase catalyzes the first step in the biosynthesis of arachidonic acid (AA) to PGH2. PGF2α, produced from PGH2 by reduction with stannous chloride, is measured by enzyme immunoassay (ACETM competitive EIA).
(§3) Stock solutions of test compounds were dissolved in a minimum volume of DMSO. Briefly, to a series of supplied reaction buffer solutions (960 μL, 0.1M Tris-HCl pH 8.0 containing 5 mM EDTA and 2 mM phenol) with either COX-1 or COX-2 (10 μL) enzyme in the presence of heme (10 μL) were added 10 μL of various concentrations of test drug solutions (0.01, 0.1, 1, 10, 50, and 100 μM in a final volume of 1 mL). These solutions were incubated for a period of 5 min at 37° C. after which 10 μL of AA (100 μM) solution were added and the COX reaction was stopped by the addition of 50 μL of 1M HCl after 2 min. PGF2α, produced from PGH2 by reduction with stannous chloride was measured by enzyme immunoassay.
(§4) This assay is based on the competition between PGs and a PG-acetylcholinesterase conjugate (PG tracer) for a limited amount of PG antiserum. The amount of PG tracer that is able to bind to the PG antiserum is inversely proportional to the concentration of PGs in the wells since the concentration of PG tracer is held constant while the concentration of PGs varies. The concentration of the test compound causing 50% inhibition (IC50, μM) was calculated from the concentration-inhibition response curve (duplicate determinations).

ovine COX-2 = molecular target: T2, ovine COX-2 (Ovis aries, UniProt P79208); assay: In vitro COX-2 inhibition, enzyme immuno assay (EIA) kit; type: biochemical; conditions: for IC50: ovine COX-2, EIA, duplicate determinations; for Ration (COX ½): ratio of COX-1 IC50 to COX-2 IC50
T2 construct: purchased Cayman Chemical 560101
T2 sequence (P79208 17-603): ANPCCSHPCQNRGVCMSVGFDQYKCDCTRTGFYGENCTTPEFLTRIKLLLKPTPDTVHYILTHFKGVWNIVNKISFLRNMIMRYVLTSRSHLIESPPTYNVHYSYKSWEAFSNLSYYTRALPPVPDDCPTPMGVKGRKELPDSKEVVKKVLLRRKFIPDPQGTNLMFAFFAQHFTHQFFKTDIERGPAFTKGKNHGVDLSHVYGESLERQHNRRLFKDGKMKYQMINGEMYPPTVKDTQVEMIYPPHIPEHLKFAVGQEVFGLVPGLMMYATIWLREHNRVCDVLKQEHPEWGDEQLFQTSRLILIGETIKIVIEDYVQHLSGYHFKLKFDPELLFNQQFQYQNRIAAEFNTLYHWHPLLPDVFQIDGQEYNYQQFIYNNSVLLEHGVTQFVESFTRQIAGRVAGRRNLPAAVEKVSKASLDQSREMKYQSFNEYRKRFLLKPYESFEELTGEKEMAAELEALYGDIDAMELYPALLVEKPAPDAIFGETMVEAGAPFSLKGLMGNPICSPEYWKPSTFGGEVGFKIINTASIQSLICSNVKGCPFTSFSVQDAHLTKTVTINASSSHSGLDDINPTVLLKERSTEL
Method: as §1, §2, §3, §4

[1] = system: carrageenin-induced edema of the hind paw; assay: Carrageenin-induced paw edema in rats; conditions: for Swelling volume: rat hind paw; for decrease in the edema size: after 1 h, versus control
Method: Sprague dawley rats (150-200 g) were used. Edema was induced by a single sub-plantar injection of carrageenin (1 mg/paw) into the left hind paw of the rat under light ether anesthesia. The total volume injected was always 0.1 ml. […] The results were expressed either as the increase in paw volume (ml) calculated by subtracting the basal volume or by calculating the area under the time-course curve (AUC; ml h) for each group.

[2] = system: inflammatory bowel disease IBD (ulcerative colitis); assay: Tri-nitrobenzene sulfunic acid induced ulcerative colitis in rats, MPO activity in colon; type: in vivo, Sprague dawley rats; conditions: 25 mg/kg rectally, inflamed area of the colon, FIG. 7
Method: The exemplary RNX006 compound shown in FIG. 5 F, to which reference is now made, was tested for the effect on the inflammatory bowel disease IBD (ulcerative colitis) in rats as follows. Male Sprague dawley rats were used in this study. Briefly, ulcerative colitis was induced by tri-nitrobenzene sulfunic acid as described in the literature. Rats were divided into 4 groups, (−) sham (healthy, (+) control ulcerative colitis (UC, not treated), UC treated with RNX006 (25 mg/kg), and UC treated with 5-amino salicylic acid (5-ASA 25 mg/kg). RNX006 and 5-ASA were administered rectally during all the period of the experiment. At the end of the experiment animals were sacrificed and the colon was isolated to test the severity of the inflammation. The severity of the inflammation was tested by measurement of the myeloperoxidase activity (MPO activity) in the inflamed area of the colon.

Compound	IC50 (ovine COX-1) [µM]	IC50 (ovine COX-2) [µM]	Ration (COX ½) (ovine COX-2)	Swelling volume ([1]; 1 hr after carrageenin) [mL]	Swelling volume ([1]; 2 hr after carrageenin) [mL]	Swelling volume ([1]; 3 hr after carrageenin) [mL]	Swelling volume ([1]; 4 hr after carrageenin) [mL]	decrease in the edema size [1] [%]	MPO activity relatively to IBD rats treated with 5-ASA [2]	MPO activity relatively to the (+) control of non-treated IBD rats [2]
CCCCCCCC/C=C/CCCCCCCC(=O)N1CC(O)CC1C(=O)O (stereo not drawn) [RNX001]	72.5	1.3	55.7	1.1 ± 0.09	1.3 ± 0.13	1.9 ± 0.1	1.8 ± 0.13	31	–	–
CCCCC/C=C/C/C=C/CCCCCCCC(=O)N1CC(O)CC1C(=O)O (stereo not drawn) [RNX002]	52.7	0.51	103.3	0.9 ± 0.06	1.6 ± 0.09	2.3 ± 0.11	2.1 ± 0.13	43.4	–	–
CC/C=C\C/C=C/C/C=C/C/C=C/C/C=C/C/C=C/CCC(=O)N1CC(O)CC1C(=O)O (stereo not drawn) [RNX005]	42.8	0.081	528.68	–	–	–	–	–	–	–
CCCCC/C=C/C/C=C/C/C=C/CCCCC(=O)NCCS(=O)(=O)O [RNX006]	–	–	–	–	–	–	–	–	even a lower MPO activity	significantly lower MPO activity
CC/C=C\C/C=C/C/C=C/C/C=C/C/C=C/CCCC(=O)N1CC(O)CC1C(=O)O (stereo not drawn) [RNX004]	39.5	0.085	464.11	–	–	–	–	–	–	–
